Test results reported in patent US20230133630A1, “Oral Care Compositions Comprising Dicarboxylic Acid” (The Procter & Gamble Company, priority 2021, published 2023).

Experiments:
Assay type in all cases: cell-based
[1] = tested on: human gingival keratinocytes (Gie-No3-B11), P. gingivalis OMV; assay: Infection of human gingival keratinocytes by fluorescence-label P. gingivalis outer membrane vesicles (OMV); settings: for inhibition at 100000 µM: concentration 100 mM
Experimental: (§1) One method to assess the potential of dicarboxylic acids to reduce gum disease and improve health was to assess the infection potential of gingival keratinocytes. In this model, human gingival keratinocytes (Gie-No3-B11, purchased from Creative Bioarray, Shirley, N.Y.) were maintained in a 37° C. incubator with 5% CO2. Cells were seeded in 100 μL cell suspension to each well (2K cells/well). Cells were treated 24 hours after seeding. Growth medium alone or growth medium with solvent vehicle was used as a negative control. Positive controls are either fluorescent E. coli LPS, or fluorescent S. minnesota LPS (https://corporate.thermofisher.com/us/en/index.html), fluorescence-label P. gingivalis outer membrane vesicles (OMV) with or without medium or solvent vehicle. P. gingivalis OMV was isolated following procedures described by Cecil et al. 2016 (Jessica D. Cecil, Neil M. O'Brien-Simpson, Jason C. Lenzo, James A. Holden, Yu-Yen Chen, William Singleton, Katelyn Gause, Yan Yan, Frank Caruso, and Eric C. Reynolds. Differential Responses of Pattern Recognition Receptors to Outer Membrane Vesicles of Three Periodontal Pathogens. iPLoS One. 2016; 11(4): e0151967). The OMV was stained with Lipophilic Tracer DiO following manufacturer's instruction (https://corporate.thermofisher.com/us/en/index.html). Compounds were dissolved in water and diluted in culture medium (all dilutions are deep yellow, or very acidic). All compounds and fluorescent LPS or OMV were added to cells at the same time. It is worth mentioning that cell culture medium changed immediately following adding the compounds from pink (pH7-7.4) to deep yellow (acidic). Images were taken in four sites in each well at a 3-hour interval over 48 to 120 hours in Incucyte® Live-Cell Analysis Systems (https://www.sartorius.com/en/products/live-cell-imaging-analysis/live-cell-analysis-instruments#id-789214). Data were processed and analyzed using R-programs.

[2] = tested on: human gingival keratinocytes (Gie-No3-B11), S. minnesota LPS; assay: Infection of human gingival keratinocytes by fluorescent S. minnesota LPS
Experimental: as §1

[3] = tested on: human gingival keratinocytes (Gie-No3-B11), E. coli LPS; assay: Infection of human gingival keratinocytes by fluorescent E. coli LPS
Experimental: as §1

[4] = Homo sapiens, Keratinocyte, concentration 5 mM
[5] = Homo sapiens, Keratinocyte, concentration 7.5 mM
[6] = Homo sapiens, Keratinocyte, concentration 11.11 mM
[7] = Homo sapiens, Keratinocyte, concentration 125 μM

## O=C(O)C(=O)C(=O)O [Sodium_mesoxalate_monohydrate, Sodium Mesoxalate Monohydrate]
[1]; [4]
  inhibition at 5000 µM: 44.3%

## O=C(O)[C@H](O)[C@@H](O)C(=O)O [L_+_Tartaric_acid, L-tartaric acid]
[1]; concentration 2.5 mM
  Inhibition %: 73.6%
[2]; concentration 10 mM
  Inhibition %: 52.1%

## O=C(O)/C=C/C(=O)O [Fumaric_acid, fumaric acid]
[1]; Homo sapiens, Keratinocyte, concentration 33.33 mM
  inhibition at 33330 µM: 53.1%
[2]; [5]
  inhibition at 7500 µM: 71.9%
[3]; [5]
  inhibition at 7500 µM: 31%

## CC(C)(C(=O)O)C(=O)O [Dimethylmalonic_Acid, dimethylmalonic acid]
[1]; [6]
  inhibition at 11110 µM: 81.3%
[2]; [5]
  inhibition at 7500 µM: 54.5%
[3]; [4]
  inhibition at 5000 µM: 33.8%

## O=C(O)C(=O)O [Oxalic_acid, oxalic acid]
[1]; Homo sapiens, Keratinocyte
  inhibition at 100000 µM: 32.8%
[2]; [7]
  inhibition at 125 µM: 22.5%
[3]; [7]
  inhibition at 125 µM: 38.2%

## CC(C(=O)O)C(=O)O [Methyl_malonic_acid, methylmalonic acid]
[1]; [6]
  inhibition at 11110 µM: 63.6%
[2]; Homo sapiens, Keratinocyte, concentration 2.5 mM
  inhibition at 2500 µM: 28.7%
[3]; [4]
  inhibition at 5000 µM: 30.7%

## O=C(O)/C=C\C(=O)O [Maleic_acid, maleic acid]
[1]; Homo sapiens, Keratinocyte
  inhibition at 100000 µM: 83.3%
[2]; Homo sapiens, Keratinocyte, concentration 3 mM
  inhibition at 3000 µM: 73.8%
[3]; [4]
  inhibition at 5000 µM: 63.8%

## O.O=C([O-])C(=O)[O-].[K+].[K+] [Potassium_oxalate_monohydrate, Potassium Oxalate Monohydrate]
[2]; concentration 125 μM
  Inhibition %: 41.5%
[3]; concentration 125 μM
  Inhibition %: 21.5%

## O=C(O)CC(=O)O [Malonic_acid, malonic acid]
[1]; [6]
  inhibition at 11110 µM: 69.3%
[3]; [4]
  inhibition at 5000 µM: 35.9%

## O=C(O)CC(O)C(=O)O (stereo not drawn) [DL_Maleic_acid]
[1]; concentration 11.11 mM
  Inhibition %: 62.2%
[2]; concentration 7.5 mM
  Inhibition %: 59.9%
[3]; concentration 5 mM
  Inhibition %: 36.3%

## O=C(O)CCC(=O)O [Succinic_acid, succinic acid]
[1]; Homo sapiens, Keratinocyte, concentration 2 mM
  inhibition at 2000 µM: 73%
[2]; Homo sapiens, Keratinocyte, concentration 1 mM
  inhibition at 1000 µM: 42.3%

## O=C(O)C(O)C(O)C(=O)O (stereo not drawn) [DL_Tartaric_acid, DL tartaric acid]
[1]; concentration 1 mM
  Inhibition %: 57.7%
[2]; concentration 1 mM
  Inhibition %: 26.4%
